The structures appear in SMILES notation.

We go through one compound from patent publication US10357574B2, “Optical sensor conjugates for detecting reactive oxygen and/or reactive nitrogen species in vivo” (The General Hospital Corporation, priority 2010, dated 2019).

The test system of the data set is infarcted mouse hearts. Put plainly: Mouse model of myocardial infarction (permanent coronary ligation), fluorescence imaging of heart sections. Type of data set: in vivo, mice (C57/B6). The settings on record: injected intravenously into the tail-vein 12-14 hours after MI, imaged 24 hours later. As for the experimental part: To investigate the utility of the optical sensor conjugate in vivo, we determined the ability of the sensor to monitor ischemia and inflammation as a result of permanent coronary ligation in a mouse model of myocardial infarction. For all experiments, the agents (optical sensor conjugate or fluorogenic small molecule with linker) were injected intravenously into the tail-vein of the mice 12-14 hours after MI and imaged 24 hours later when neutrophil recruitment to the infarct is high.
Anesthesized mice were intubated and a thoracotomy was performed in the 4th left intercostal space to visualize the left ventricle where the left coronary artery was ligated. […]
Hearts were excised and rinsed in PBS and cut into myocardial rings of 1-mm thickness and either immediately stained with 2-3-5-triphenyl tetrazolium chloride (TTC) (Nahrendorf et al. Circulation, 113:1196-202 (2006)) to highlight the infarcted tissue or used for histological analysis. Fluorescence reflectance imaging of side-by-side myocardial rings of controls and injected hearts was performed in the GFP channel (lexc=450-480 nm with lem 500-530 nm) and Cy5 channel (lexc=620-650 nm with lem=680-710 nm) using an Olympus OV-100 system (Olympus, Center Valley, Pa.). For histology and fluorescence microscopy, the tissue was embedded in OCT medium (Sakura Finetek, Torrance, Calif.). […]

Regarding `CCN(CC)c1ccc2c(c1)Oc1cc(N(CC)CC)ccc1N2C(=O)CCCC(=O)O` [small molecule probe, sodium 5-(3,7-bis(diethylamino)-10H-phenoxazin-10-yl)-5-oxopentanoate], the “localization of fluorescence in coronal heart sections (fluorescence reflectance imaging)” value was “washed out of the infarct and into the myocardium”.
